Reference: PMC11408249, “Non-invasive in vivo imaging of changes in Collagen III turnover in myocardial fibrosis” (npj Imaging, 2024)
Residues, ends and D or L forms follow the SMILES beside them. No end group written: not given here. *: point of attachment. DOTA = O=C(O)CN1CCN(CC(=O)O)CCN(CC(=O)*)CCN(CC(=O)O)CC1

Experiments:
COL3 [1] = biological target: T1, COL3 (Homo sapiens, UniProt P02461); experiment: Eu(III) time resolved fluorescence (TRF) plate binding assay on immobilised COL3; details: immobilised COL3, probe up to 15 µM
T1 sequence (P02461 154-1221 limits assumed): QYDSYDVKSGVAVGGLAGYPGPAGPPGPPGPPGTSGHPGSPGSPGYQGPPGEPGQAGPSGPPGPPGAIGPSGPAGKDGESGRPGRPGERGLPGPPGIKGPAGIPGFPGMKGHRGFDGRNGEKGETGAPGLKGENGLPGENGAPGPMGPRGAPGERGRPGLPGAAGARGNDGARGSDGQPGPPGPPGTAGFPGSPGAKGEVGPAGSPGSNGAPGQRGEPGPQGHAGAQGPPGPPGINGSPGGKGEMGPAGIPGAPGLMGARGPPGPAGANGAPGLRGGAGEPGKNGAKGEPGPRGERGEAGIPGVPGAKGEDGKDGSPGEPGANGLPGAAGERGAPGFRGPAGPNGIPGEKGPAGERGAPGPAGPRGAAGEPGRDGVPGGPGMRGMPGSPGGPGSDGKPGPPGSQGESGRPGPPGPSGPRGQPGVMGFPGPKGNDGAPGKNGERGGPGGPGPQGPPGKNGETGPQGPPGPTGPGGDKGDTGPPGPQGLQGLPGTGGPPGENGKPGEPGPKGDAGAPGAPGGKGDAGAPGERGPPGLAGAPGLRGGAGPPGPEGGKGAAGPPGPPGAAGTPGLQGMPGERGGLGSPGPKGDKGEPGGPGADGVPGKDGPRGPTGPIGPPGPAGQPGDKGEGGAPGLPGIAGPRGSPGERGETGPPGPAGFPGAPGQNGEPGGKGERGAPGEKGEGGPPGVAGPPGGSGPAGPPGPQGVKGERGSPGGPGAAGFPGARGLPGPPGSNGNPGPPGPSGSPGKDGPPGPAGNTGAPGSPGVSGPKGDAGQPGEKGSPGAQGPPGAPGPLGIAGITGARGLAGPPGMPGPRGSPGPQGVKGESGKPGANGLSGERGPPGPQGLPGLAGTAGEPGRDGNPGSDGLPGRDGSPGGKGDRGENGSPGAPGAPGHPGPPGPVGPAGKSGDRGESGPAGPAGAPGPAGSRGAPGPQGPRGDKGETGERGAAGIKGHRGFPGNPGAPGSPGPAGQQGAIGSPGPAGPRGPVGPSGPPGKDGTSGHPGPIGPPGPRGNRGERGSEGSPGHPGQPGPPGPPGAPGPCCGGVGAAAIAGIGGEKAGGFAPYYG
Procedure: The protocol to assess the binding affinity of the Eu(III)-labelled collagen probes to COL3 has been optimised previously. Such an assay is based on the Eu(III) TRF which detects the amount of Eu(III)-labelled probes that bind to COL3 immobilised on a multi-well plate. The assay was used to measure the COL3 binding affinity of the monomeric Eu(III)-labelled probes (expressed as the dissociation constant, Kd). The same assay was carried out with COL1, to estimate the selectivity for COL3 binding in respect to COL1. Potential unspecific binding effects associated with the assay were investigated by using two types of control experiments: (i) the scrambled versions of the Eu(III)-labelled probes were used as negative controls in TRF plate assays with immobilised collagen (either COL3 or COL1); and (ii) the collagen specific probes were assayed against elastin and bovine serum albumin (BSA) as control non-binding proteins. Briefly, increasing concentrations of the peptide (0.1–15 µM; 70 µL per well) were incubated in 96-well microplates pre-coated with the desired protein. Triplicate readings were taken per concentration and three independent experiments (plates) were used. After incubation of the peptide with the protein for one hour, the plates were washed with PBS to remove any free (unbound) peptide. […] The plates were then read using a luminescence plate reader. […]

COL3 [2] = biological target: T2, COL3 (Mus musculus, UniProt P08121); experiment: In vivo MRI of the aortic wall in a murine model of vascular remodelling; details: ApoE−/− mice after aortic injury and 12 weeks high-fat diet, i.v. 0.2 mmol/kg, LGE MRI at 3 T up to 2 h post-injection
T2 construct: from tissue; host or cells: infarcted left-ventricular myocardium of female CD1 mice, in vivo
T2 sequence (P08121 155-1219 limits assumed): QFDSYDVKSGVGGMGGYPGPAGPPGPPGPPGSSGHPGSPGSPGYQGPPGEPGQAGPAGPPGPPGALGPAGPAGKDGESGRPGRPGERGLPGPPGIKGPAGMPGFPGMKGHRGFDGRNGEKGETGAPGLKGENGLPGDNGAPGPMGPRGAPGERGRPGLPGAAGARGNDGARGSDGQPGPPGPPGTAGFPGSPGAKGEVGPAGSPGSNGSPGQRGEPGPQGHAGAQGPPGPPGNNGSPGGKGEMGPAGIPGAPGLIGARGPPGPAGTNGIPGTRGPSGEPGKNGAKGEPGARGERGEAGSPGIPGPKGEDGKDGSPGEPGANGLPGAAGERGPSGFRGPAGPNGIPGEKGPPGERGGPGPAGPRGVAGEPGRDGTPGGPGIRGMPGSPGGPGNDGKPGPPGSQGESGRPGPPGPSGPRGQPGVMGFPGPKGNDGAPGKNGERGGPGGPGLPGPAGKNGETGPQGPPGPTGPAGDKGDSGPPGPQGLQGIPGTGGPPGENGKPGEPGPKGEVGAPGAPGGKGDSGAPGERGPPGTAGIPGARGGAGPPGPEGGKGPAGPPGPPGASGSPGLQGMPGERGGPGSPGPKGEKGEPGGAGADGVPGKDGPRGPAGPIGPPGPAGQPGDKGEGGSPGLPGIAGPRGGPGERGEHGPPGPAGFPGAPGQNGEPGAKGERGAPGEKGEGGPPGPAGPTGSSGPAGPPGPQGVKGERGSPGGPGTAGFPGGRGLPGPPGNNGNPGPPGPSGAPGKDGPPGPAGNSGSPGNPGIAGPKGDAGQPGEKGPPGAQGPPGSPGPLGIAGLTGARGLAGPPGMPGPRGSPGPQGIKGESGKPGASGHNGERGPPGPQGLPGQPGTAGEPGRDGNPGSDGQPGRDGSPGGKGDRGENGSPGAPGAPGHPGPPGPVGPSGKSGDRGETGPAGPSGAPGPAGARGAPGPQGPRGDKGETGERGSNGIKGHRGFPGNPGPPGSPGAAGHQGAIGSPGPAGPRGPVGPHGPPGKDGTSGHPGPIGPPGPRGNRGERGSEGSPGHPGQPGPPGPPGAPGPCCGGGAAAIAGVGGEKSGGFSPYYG
Description: Male ApoE^−/− mice were bred in-house and underwent surgery at 8–10 weeks of age (n = 6). Mice were anesthetised with 4% isoflurane mixed with 1% medical oxygen and anaesthesia was maintained at 2% during the surgery as previously reported. Briefly, mice underwent a laparotomy to expose the abdominal aorta, renal and iliac arteries. Two ligatures were inserted around the aorta (surgical silk, size 4–0, Aragó, Zaragoza, Spain), the first below the renal arteries and the second above the iliac bifurcation. A 30 G needle was introduced into the abdominal aorta at the level of the iliac bifurcation, via an aortic puncture. 1 mL of saline was infused into the aorta in three boluses. Finally, the needle was removed, and the puncture was repaired. The muscle and skin incisions were sutured (5-0 Vicryl, Ethicon Inc, Somerville, NJ), and the animals were allowed to recover. Mice were switched to a high-fat diet (HFD) containing 21% fat from lard and 0.15% (wt/wt) cholesterol (Special Diets Services, Witham, United Kingdom), on day 2 post-surgery for 12 weeks prior to the imaging experiments.
Anaesthesia was induced with 4% and maintained with 1–2% isoflurane during the MRI experiments. Mice (n = 3 per group) were placed supine on a single-loop surface coil (diameter = 47 mm) and the abdominal aorta was imaged up to 2 h post-injection of the monomeric (i.v. 0.2 mmol/kg, 0.2 mmol/kg Gd), the next day with the corresponding tetrameric collagen-binding probe (i.v 0.2 mmol/kg, 0.8 mmol/kg Gd) and the 3rd day using the scrambled probes (n = 2–3 per probe; i.v. 0.2 mmol/kg). This timeline ensures complete washout of one probe from the tissue before the administration of another probe. […]

COL3 remodelling = experiment: Enalapril treatment after myocardial infarction, read out by COL3 molecular CMR and cine MRI; type: in vivo, mice
Collagen type III (COL3) [3] = biological target: T3, Collagen type III (COL3) (Homo sapiens, UniProt P02461); experiment: Eu(III) time-resolved fluorescence plate assay
T3 chain: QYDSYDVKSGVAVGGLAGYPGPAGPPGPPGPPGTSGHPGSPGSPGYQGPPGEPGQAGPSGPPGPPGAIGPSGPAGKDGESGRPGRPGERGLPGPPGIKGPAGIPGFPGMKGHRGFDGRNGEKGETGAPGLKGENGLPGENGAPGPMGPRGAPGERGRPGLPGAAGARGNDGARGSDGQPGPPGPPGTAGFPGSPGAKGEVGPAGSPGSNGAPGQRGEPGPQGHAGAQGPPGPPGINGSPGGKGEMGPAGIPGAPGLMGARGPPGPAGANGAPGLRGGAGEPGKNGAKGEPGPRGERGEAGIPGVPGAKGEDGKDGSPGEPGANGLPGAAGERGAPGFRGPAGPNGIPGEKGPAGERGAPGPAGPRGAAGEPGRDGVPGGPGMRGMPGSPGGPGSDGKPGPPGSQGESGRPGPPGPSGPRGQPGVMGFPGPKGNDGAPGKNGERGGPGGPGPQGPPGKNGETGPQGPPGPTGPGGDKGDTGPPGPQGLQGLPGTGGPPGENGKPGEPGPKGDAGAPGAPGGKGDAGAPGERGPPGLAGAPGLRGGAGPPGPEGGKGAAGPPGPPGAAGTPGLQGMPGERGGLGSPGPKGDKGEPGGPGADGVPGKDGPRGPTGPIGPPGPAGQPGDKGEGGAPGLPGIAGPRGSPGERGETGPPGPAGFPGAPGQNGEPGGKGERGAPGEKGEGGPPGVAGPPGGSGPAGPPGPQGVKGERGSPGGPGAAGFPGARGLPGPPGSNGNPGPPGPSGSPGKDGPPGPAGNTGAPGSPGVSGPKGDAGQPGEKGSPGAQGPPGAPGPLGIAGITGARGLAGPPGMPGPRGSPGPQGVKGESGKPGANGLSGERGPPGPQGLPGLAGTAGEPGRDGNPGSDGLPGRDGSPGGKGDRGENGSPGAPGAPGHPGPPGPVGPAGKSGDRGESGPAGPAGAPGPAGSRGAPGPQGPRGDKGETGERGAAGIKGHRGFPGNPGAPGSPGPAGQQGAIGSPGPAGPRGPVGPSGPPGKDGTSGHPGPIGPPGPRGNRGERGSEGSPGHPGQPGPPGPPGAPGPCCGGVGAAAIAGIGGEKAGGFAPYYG

Collagen type III (COL3) [4] = biological target: T3, Collagen type III (COL3); experiment: competition Eu(III) time-resolved fluorescence assay

CC(C)[C@H](NC(=O)[C@H](CCC(=O)O)NC(=O)[C@H](CO)NC(=O)[C@H](CCCCN)NC(=O)[C@H](CCCNC(=N)N)NC(=O)[C@H](C)NC(=O)[C@H](CC(=O)O)NC(=O)CN1CCN(CC(=O)O)CCN(CC(=O)O)CCN(CC(=O)O)CC1)C(=O)N[C@@H](CCC(N)=O)C(=O)N[C@@H](CCCCN)C(=O)O [Eu-DOTAMA-CBP1] ({DOTA}-DARKSEVQK-OH)
fractional occupancy (FO) at the highest concentration of probe (COL3 [1]): 74%

Ac-C-EWFMKDRLLNRPT [[Gd-DOTAMA]4-SccCBP2, scrambled tetrameric Gd probe (Ac-C-…), negative control]
signal enhancement of the remodelled aortic wall (in words) (COL3 [2]): also showed signal enhancement

CCOC(=O)[C@H](CCc1ccccc1)N[C@@H](C)C(=O)N1CCC[C@H]1C(=O)O [enalapril]
volume of signal enhancement (LGE volume) at day 21 versus untreated mice (in words) (COL3 remodelling; enalapril 20 mg/kg/day in drinking water after MI, imaged with [Gd-DOTAMA]4-CBP1, n = 7 per group): significantly higher volume of signal enhancement | cardiac geometry and function versus untreated mice (in words) (COL3 remodelling; enalapril 20 mg/kg/day in drinking water, cine MRI, days 10 and 21 post-MI): no significant differences

TEFPLRMRDWLKN (not fully specified (N-terminus); also: Eu complexed by N-terminal DOTAMA) [Eu-DOTAMA-CBP2]
Kd (Collagen type III (COL3) [3]): 4.8 µM

DARKSEVQK (not fully specified (N-terminus); also: Eu complexed by N-terminal DOTAMA) [Eu-DOTAMA-CBP1]
Kd (Collagen type III (COL3) [3]): 5.3 µM

Ac-C((Gd-DOTAMA)4 tri‑lysine scaffold)DARKSEVQK (not fully specified) [[Gd-DOTAMA]4-CBP1]
IC50 (Collagen type III (COL3) [4]): 200 µM
